This passage reports viability, IC50 and EC50 results from patent publication US20220017478A1, “2-BENZOYLAMINOBENZAMIDE DERIVATIVES AS BCL-3 INHIBITORS” (University College Cardiff Consultants Limited, priority 2013, published 2022).

Data set [1] is described as follows: Cell Titre Blue viability assay, HEK-293. Type of data set: cell-based. The note with it: human, HEK-293 cells, HEK-293, 10 μM, vs DMSO. An excerpt: In all assays, a DMSO control was always used.
Data set [2] concerns the target T1, Bcl-3-p50 binding (Homo sapiens, UniProt P20749).
T1 construct: expressed in transfected cells; host or cells: HEK-293
T1 sequence (P20749 1-454): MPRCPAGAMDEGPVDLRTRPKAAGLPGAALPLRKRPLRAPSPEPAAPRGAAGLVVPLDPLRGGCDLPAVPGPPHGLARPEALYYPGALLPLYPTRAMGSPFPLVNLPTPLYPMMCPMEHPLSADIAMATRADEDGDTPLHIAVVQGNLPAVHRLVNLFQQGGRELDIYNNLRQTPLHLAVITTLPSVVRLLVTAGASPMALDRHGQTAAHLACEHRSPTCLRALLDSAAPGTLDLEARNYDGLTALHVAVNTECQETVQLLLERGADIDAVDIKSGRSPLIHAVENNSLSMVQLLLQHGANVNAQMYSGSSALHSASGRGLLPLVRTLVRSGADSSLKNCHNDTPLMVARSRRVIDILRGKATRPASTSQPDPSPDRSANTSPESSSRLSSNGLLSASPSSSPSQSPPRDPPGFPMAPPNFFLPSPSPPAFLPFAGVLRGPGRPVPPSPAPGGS
In words: Indirect sandwich ELISA of Bcl-3 binding to p50 in lysates of treated HEK-293 cells overexpressing FLAG-tagged Bcl-3. Type of data set: cell-based. The procedure: Proteins were extracted from cells in order to be analyzed by ELISA assay. The media from tissue culture flask was removed and cells were rinsed with ice cold PBS (Sigma, Dorset, UK). Appropriate volume of PBS (5 ml for T25, 10 ml for T80) was added into the flask and cells were removed with a cell scraper (Nunc, Leics, UK). The cell suspension was then transferred to 15 ml tubes and centrifuged at 11000 rpm for 5 min at room temperature. Resulting pellet was used for protein extraction immediately or stored at −20° C. prior use.
Non-denatured protein extract was prepared using non-denaturing lysis buffer (Table 1) and used to analyze protein-protein interaction.
Complete mini protease inhibitor tablets (Roche, Welwyn Garden City, UK), 10 mM sodium fluoride (Fluka Biochemika), 1 mM sodium pyrophospate and 1 mM sodium orthovanadate (Sigma, Dorset, UK) were added to the buffer prior use. Cell pellets were resuspended in appropriate volume of non-denaturing buffer (50-200 μl) and cultivated on ice 5 min. Cell suspensions were transferred to microcentrifuge tubes and sonicated on ice (3 times 5 s) and centrifuged at 10000 rpm for 10 min at 4° C. The resultant supernatant was used immediately or stored at −20° C. until required.
In our case, ELISA assay was used to detect either the amount of Flag-Bcl-3 protein alone or Flag-Bcl-3 in complex with p50, using indirect or sandwich ELISA respectively.
For Indirect and sandwich ELISA assay, Non-denaturing cell lysate (above) was diluted with TBS/T [tris buffer saline (TBS, Calbiochem, Merck) supplemented with 0.5% v/v Tween (Sigma, Dorset, UK)] to a concentration of 0.5-1 μg/μl and 100 μl was added onto ANTI-Flag coated flat bottom ELISA plates (Sigma, Dorset, UK). Samples were added in triplicates, while TBS/T was used as a negative control. The plate was cultivated at 37° C. for an hour followed by 3×200 μl washes with TBS/T. Primary antibodies, either Bcl-3 (Santa Cruz Biotech) for indirect ELISA and p50 for sandwich ELISA (Abcam) were added in known volumes (125 μl) and concentrations to each well, cultivated covered from light for an hour at room temperature. Another three 200 μl washes with TBS/T were performed before cultivation with alkaline phospatase (AP) conjugated secondary antibody. Meanwhile, para-nitrophenylphosphate solution (pNPP, Santa Cruz Biotechnology, California, USA) was prepared according to manufacturer's instructions (5 mg of pNPP disodium salt in 5 ml of pNPP substrate buffer). The solution was mixed well and covered from light prior to use. pNPP is a substrate of choice for use with alkaline phosphatase and produces a soluble end product that is yellow in colour. Therefore colour changes can be measured and represent the amount of AP present. After cultivation with secondary antibody, the wells were washed 3×200 μl. TBS/T, pNPP solution was added (50 μl/well) and cultivated for an hour covered from light at room temperature. The reaction was stopped by addition of 3N NaOH (20 μl/well) and the colorimetric changes were measured at 405 nm using a plate reader.
HEK-293 cells overexpressing Bcl-3 were cultivated with Compound 1a over a range of molarities for 24 hrs before cell lysates were obtained under non-denaturing conditions. […] Indirect ELISA assay was performed using Bcl-3 antibody to show an equal loading across samples treated with compound 1a (FIG. 2B) and controls (FIG. 2C).
HEK-293 Bcl-3 WT cells were cultivated with selected compounds over a range of molarities for 24 hrs before cell lysates were obtained under non-denaturing conditions. The dose response curve for selected analogues was generated using GraphPad software (FIG. 8A-D).

Data set [3] in a line: Cell Titre Blue viability assay, MDA-MB-231. The settings on record: human, MDA-MB-231 cells.
Experimental: The viability of cells at experimental endpoints for particular assays was determined using the Cell Titre Blue reagent (Promega, Southampton, UK). This reagent measures the cellular metabolic activity using resazurin as an indicator dye. Viable cells, therefore metabolically active, will reduce resazurin into highly fluorescent resofurin. The resulting fluorescence levels are measured and indicate cell viability.
Cells were plated at low confluency into 96 well plates in 100 μl of complete growth media in triplicates and were incubated at 37° C. in 5% CO2 for the desired test exposure period. For each 100 μl of media in 96 well plates, 20 μl Cell Titre Blue reagent was added followed by incubation for an hour at 37° C. in 5% CO2. Fluorescence was then measured by setting excitation/emission wavelengths to 560/590 nm on a Flurostar Optima plate reader (BMG tabtech, Bucks, UK).
Cell toxicity was evaluated using the Cell Titre Blue viability assay over a range of molarities for 24 hrs.
Selected compounds were dissolved in DMSO and diluted to a highest concentration of 10 μM (0.1% DMSO). In all assays, a DMSO control was always used. Selected compounds were tested for cell toxicity in HEK-293 and MDA-MB-231 cells before being used in cell-based assays. Cell toxicity was evaluated using the Cell Titre Blue viability assay over a range of molarities for 24 hrs
Setting [4] is: HEK-293 overexpressing Bcl-3, 24 hrs, read-out: IC50 Indirect Sandwich ELISA (Bcl-3-p50 binding).
[5] abbreviates: Table 3, read-out: ELISA assay (μM) IC50.

Like-named read-outs stand apart in the source and are kept apart here.

Regarding `O=C(Nc1ccccc1C(=O)NCCN1CCOCC1)c1ccccc1F` [Compound 1a, 2-[(2-fluorobenzoyl)amino]-N-(2-morpholin-4-ylethyl)benzamide], the viability at 24 h, 10 µM in data set [1] is above 70%. Besides, the IC50 in data set [2] (setting [4]) was found to be 0.386 µM. In data set [3], this compound gave a viability at 24 h, 10 µM above 70% and a viability at 24 h, 1 mM of 72%.

Take `COc1ccc(C(=O)Nc2ccccc2C(=O)NCCN2CCOCC2)cc1` [Compound 1f, 2-[(4-methoxybenzoyl)amino]-N-(2-morpholin-4-ylethyl)benzamide]: the viability at 24 h, 10 µM in data set [1] and in data set [3] was above 70% in each case. Besides, the figures for the IC50 in data set [2] (setting [4]) and in data set [2] (setting [5]) were 0.0602 µM and 0.0617 µM, respectively. In addition, the EC50 at 24 h in data set [3] worked out at 781000 nM.

Turning to `O=C(Nc1ccccc1C(=O)NCCCN1CCOCC1)c1ccccc1F` [Compound 2a], the viability at 24 h, 10 µM in data set [1] and in data set [3] was above 70% throughout. In addition, the IC50 in data set [2] (HEK-293 Bcl-3 WT, 24 hrs, IC50 could not be established, calculated with GraphPad, read-out: IC50 Indirect Sandwich ELISA, calculated from the dose response curve) is 15.2 µM.

As to `COc1cccc(C(=O)NCCN2CCOCC2)c1NC(=O)c1ccccc1F` [Compound 3a, 2-[(2-fluorobenzoyl)amino]-3-methoxy-N-(2-morpholin-4-ylethyl) benzamide], the viability at 24 h, 10 µM in data set [1] and in data set [3] was above 70% each time. Further, the IC50 stood at 0.119 µM in data set [2] (setting [4]) and 0.0119 µM in data set [2] (setting [5]).
